{
  "source": "patent US20170168056A1",
  "about": "“METHODS AND COMPOSITIONS FOR DETECTING AND MODULATING CANCER CELLS” (Massachusetts Institute of Technology, priority 2015, published 2017)",
  "key": {"[1]": {"tested_on": "human breast cancer cell lines", "assay": "Cell viability (Taxol/paclitaxel efficacy) across a panel of breast cancer cell lines versus endogenous Mena expression", "format": "cell-based", "settings": "9 breast cancer cell lines, 72 h treatment", "from_the_text": "Endogenous levels of Mena in breast cancer cell lines correlate with their resistance to Taxol treatment. Initial experiments relied on ectopic expression in a single cell line, we examined a panel breast cancer cell lines with differing levels of endogenous Mena expression for sensitivity to Taxol. […] Essentially, low endogenous Mena correlates with low resistance/reduced viability in Taxol treated cells, while high endogenous Mena correlates with high resistance/viability in Taxol treated cells (FIG. 1F).\nCell viability assay. […] All measurements were repeated in triplicate.\nMENA and MENA^INV are associated with increased survival during paclitaxel treatment in vitro. Whether endogenous MENA and MENA^INV expression levels were associated with paclitaxel resistance was examined. MENA and MENA^INV were determined to be widely expressed in all main breast cancer subtypes, as measured by mRNA from TCGA samples, as well as at the protein level by immunohistochemistry (FIGS. 28A, 28B, 28C), with slightly higher expression in patients with Her2+ breast cancer. […] Under the conditions we used, MENA11a co-migrates with the 80 kDa MENA, thus the intensity of the measured the 80 kDa MENA, detected with an antibody known to recognize all MENA isoforms, represents the total amount of 80 kDa MENA plus MENA11a in the cell lines that express both isoforms. […]"}, "[2]": {"tested_on": "MDA-MB-231 xenograft tumors", "assay": "Multiphoton intravital imaging of motile tumor cells", "format": "in vivo, mouse", "method": "Intravital imaging. Intravital multiphoton imaging was performed as described previously (Oudin M J, et al. Tumor cell-driven extracellular matrix remodeling enables haptotaxis during metastatic progression. Cancer Discov. 2016; Available from: www.ncbi.nlm.nih.gov/pubmed/26811325) using a 25×1.05 NA water immersion objective with correction lens. After exposing the tumor with a skin flap surgery, 30 minute movies were captured. The number of motile cells in each field of view were count in ten 30 minute time-lapse movies using ImageJ. Motile cells were cells who show any displacement of the nucleus and cell protrusion activity. Data were pooled from 2-4 mice per tumor group, with 4-10 fields imaged per mouse.\nMENA and MENA^INV drive increased cell motility and metastasis during tumor progression. Therefore, whether MENA isoform expression impacts cell migration and dissemination after paclitaxel treatment was examined."}, "MDA-MB-231 cells [3]": {"tested_on": "MDA-MB-231 cells", "assay": "Cell viability assay (Prestoblue) in MDA-MB-231 cells expressing GFP, GFP-Mena or GFP-Mena^INV", "settings": "72 h of treatment with Taxol at 100 nM, 1 μm or 10 μM", "description": "Cell viability assays were performed in a 96-well plate. 5,000 cells were plated per well and treated with drug 24 hours later. Cell viability was assayed 72 hours later using the PrestoBlue Cell Viability Reagent (Life Technologies), according to manufacturer's protocol. Fluorescence was measured and normalized to cells exposed to vehicle. The activity area was calculated from doseresponse plots using Matlab. All measurements were repeated in triplicate."}, "MDA-MB-231 cells [4]": {"tested_on": "MDA-MB-231 cells", "assay": "Time-lapse microscopy of cell division", "format": "cell-based, human", "settings": "for increase in time spent in cell division: 10 nM paclitaxel vs vehicle", "method": "In vitro imaging. Glass bottom dishes were coated with Co11agen at 0.1 mg/mL diluted in PBS for 1 hour at 37° C. Cells expressing different MENA isoform were treated with paclitaxel at 1, 10 or 100 nM or vehicle and immediately plated on the glass bottom dishes. 30 minutes later, cells were imaged overnight, with one image acquired every 10 minutes for 16 hours on a Nikon spinning disk with a 20× objective and an Andor/NeoZyla camera. Individual cells were manually tracked using ImageJ and Manual Tracking plug-in. Data were analyzed using the chemotaxis tool developed by IBIDI. For analysis of time spent in cell division, the time between when the mother cell first rounds up, to when both daughter cells have spread out on substrate was measured. The percentage of successful cell divisions was quantified by counting the number of cell divisions that lead to two surviving daughter cells. Data are pooled from at least 50 cells tracked in three independent experiments.\nOne of the key steps in paclitaxel-induced cell death is cell arrest in the G2/M phases of the cell cycle. […] Time-lapse microscopy was performed to study the cell division phenotypes in more detail, and imaged cells expressing MENA isoforms while adherent on collagen (FIGS. 35D, 35E, 35F)."}, "[5]": {"tested_on": "MDA-MB-231 xenograft tumors", "assay": "Ki67 and cleaved caspase-3 immunostaining of xenograft tumor sections", "format": "in vivo, mouse", "settings": "for proliferation (Ki67) in control tumors: MDA-MB-231 control tumors; for proliferation (Ki67) in control tumors / proliferation (Ki67) in Mena and Mena^INV tumors: vs vehicle; for proliferation (Ki67) in Mena and Mena^INV tumors: Mena- and Mena^INV-expressing tumors; for apoptosis (cleaved caspase-3, CC3): all three types of tumor", "from_the_text": "The effects of increased Mena/Mena^INV levels on taxol treatment in vitro (increased fractions of viable cells) and in vivo (resistance to anti-tumor growth effects) could arise from increased proliferation, decreased apoptosis or both. To evaluate the effects of Mena/Mena^INV on proliferation and cell death, tumor sections were stained with antibodies to Ki67 (a proliferation marker) and cleaved caspase-3 (apopotic marker). […] Therefore, elevated Mena/Mena^INV expression allows continued tumor growth in treated animals by blocking the anti-proliferative effects of taxol treatment.\nImmunohistochemistry for Examples 16-22. Tumors dissected from NOD/SCID mice were fixed in 10% buffered formalin and embedded in paraffin. Tissue sections (5 μm thick) were deparaffinized followed by antigen retrieval using Citra Plus solution (Biogenex). After treatment with 3% H2O2, sections were blocked with serum, incubated with primary antibodies overnight at 4° C. and fluorescently labeled secondary antibodies at room temperature for 2 hours. Sections were stained using anti-MENA (1:500), biotinylated anti-MENA^INV (1:500), anti-CC3 (1:200), anti-Ki67 (1:200) and DAPI. Fluorochromes on secondary antibodies included AlexaFluor 488, 594 or 647 (Jackson Immunoresearch). Sections were mounted in Fluoromount mounting media and imaged at room temperature. Z series of images were taken on a DeltaVision microscope using Softworx acquisition, an Olympus 40×1.3 NA plan apo objective and a Photometrics CoolSNAP HQ camera. At least 10 fields were captured for each tumor, with at least 3 tumors per tumor group.\nAs such, proliferation and apoptosis was examined by quantifying the intensity of cells positive for Ki67 and CC3, respectively by immunostaining."}},
  "data": [
    {"compound": "CC(=O)O[C@H]1C(=O)[C@@]2(C)[C@H]([C@H](OC(=O)c3ccccc3)[C@]3(O)C[C@H](OC(=O)[C@H](O)[C@@H](NC(=O)c4ccccc4)c4ccccc4)C(C)=C1C3(C)C)[C@]1(OC(C)=O)CO[C@@H]1C[C@@H]2O", "note": "[paclitaxel]", "values": [
      {"measurement": "correlation between drug efficacy (cell survival) and endogenous Mena expression", "setting": "[1]", "value": "significant inverse correlation"},
      {"measurement": "correlation between drug efficacy (cell survival) and endogenous Mena expression", "setting": "[1]; listed as Taxol", "value": "highly significant anti-correlation"},
      {"measurement": "number of cells moving within tumors", "setting": "[2]; 231-Control tumors", "value": "significantly reduced"},
      {"measurement": "motility of tumor cells in vivo", "setting": "[2]; 231-MENA and 231-MENA^INV tumors", "value": "not affected"},
      {"measurement": "fraction of viable GFP-Mena or GFP-Mena^INV cells higher than fraction of viable GFP (Control) cells", "setting": "MDA-MB-231 cells [3]", "value": "at least 65%"},
      {"measurement": "decrease in the number of successful divisions", "setting": "MDA-MB-231 cells [4]; 231-Control cells, 10 nM paclitaxel", "value": 40, "unit": "%"},
      {"measurement": "increase in time spent in cell division", "setting": "MDA-MB-231 cells [4]; 231-Control cells", "value": "four-fold"},
      {"measurement": "increase in time spent in cell division", "setting": "MDA-MB-231 cells [4]; 231-MENA and 231-MENA^INV cells", "value": "two-fold"},
      {"measurement": "successful cell divisions", "setting": "MDA-MB-231 cells [4]; paclitaxel treated 231-MENA and 231-MENA^INV cells", "value": "over 90%"},
      {"measurement": "proliferation (Ki67) in control tumors", "setting": "[5]", "value": "decreased the amount of Ki67 staining"},
      {"measurement": "proliferation (Ki67) in control tumors", "setting": "[5]; listed as Taxol", "value": "significantly decreased"},
      {"measurement": "proliferation (Ki67) in Mena and Mena^INV tumors", "setting": "[5]", "value": "failed to decrease the numbers of Ki67-positive cells"},
      {"measurement": "proliferation (Ki67) in Mena and Mena^INV tumors", "setting": "[5]; listed as Taxol", "value": "failed to decrease proliferation"},
      {"measurement": "apoptosis (cleaved caspase-3, CC3)", "setting": "[5]", "value": "increase in cell death as marked by CC3 positive cells in all tumors"},
      {"measurement": "apoptosis (cleaved caspase-3, CC3)", "setting": "[5]; listed as Taxol", "value": "similar, significant apoptotic responses"}
    ]}
  ]
}
